The values that follow come from PubChem BioAssay (NCI).

Some test systems named below: ACHN renal; HL-60(TB) leukemia; IGROV1 ovarian; MDA-MB-435; NCI-H23 lung; PC-3 prostate; RPMI-8226 leukemia; SK-MEL-2 melanoma; SR leukemia; SN12C renal.
What all share (assay): NCI anticancer screen, dose series, 48 h

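Method: 48-hour compound exposure of cells in 96-well plates, five concentrations, linear interpolation of endpoints. The concentration for 50% growth inhibition is given as GI50. TGI: concentration producing complete growth inhibition.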

For `Cc1ccc(N=Nc2c(O)c(C(=O)O)cc3ccccc23)cc1C`, the TGI with ACHN renal, with HL-60(TB) leukemia, in the assay on IGROV1 ovarian, in the assay on MDA-MB-435, with NCI-H23 lung and with PC-3 prostate was above 100 µM each time. In addition, the TGI in the assay with RPMI-8226 leukemia, in the assay on SK-MEL-2 melanoma and in the assay on SR leukemia was above 100 µM each time.

With `CCCCCCCCCCC(C(=O)O)C1(C(=O)O)CCC(=O)O1` (stereo unspecified), the TGI in the assay on ACHN renal, in the assay on HL-60(TB) leukemia, in the assay with IGROV1 ovarian, in the assay on MDA-MB-435, with NCI-H23 lung and in the assay on PC-3 prostate was above 100 µM each time. Further, the TGI with RPMI-8226 leukemia, in the assay with SK-MEL-2 melanoma, in the assay on SN12C renal and with SR leukemia was above 100 µM each time.

Take `COc1ccc(/C=C(/C#N)C(N)=O)cc1OC`: the TGI in the assay on ACHN renal, in the assay with HL-60(TB) leukemia, with IGROV1 ovarian, in the assay with MDA-MB-435, in the assay on NCI-H23 lung and with PC-3 prostate was above 100 µM throughout. The TGI with RPMI-8226 leukemia, in the assay with SK-MEL-2 melanoma, in the assay with SN12C renal and with SR leukemia was above 100 µM in each case.

With `COc1cc(C2CC(c3ccc4c(c3)OCO4)=NN2C=O)cc(OC)c1OC` (stereo unspecified), the GI50 in the assay with ACHN renal is 3.53 µM; in the assay on HL-60(TB) leukemia it was 0.935 µM; in the assay with IGROV1 ovarian, 2.37 µM; in the assay on MDA-MB-435 it was 0.26 µM; in the assay with NCI-H23 lung, 4.14 µM; in the assay on PC-3 prostate it was 4.92 µM. For the same molecule, the GI50 with RPMI-8226 leukemia was 5.17 µM; in the assay on SK-MEL-2 melanoma, 9.46 µM; with SN12C renal it was 13.6 µM; in the assay on SR leukemia, 0.52 µM. In addition, the TGI with ACHN renal was above 100 µM; in the assay on IGROV1 ovarian it was above 100 µM; in the assay with MDA-MB-435 it was 1.13 µM; in the assay with NCI-H23 lung, above 100 µM; in the assay on PC-3 prostate, above 100 µM; in the assay with RPMI-8226 leukemia, above 64.6 µM. Moreover, the TGI with SK-MEL-2 melanoma, with SN12C renal and in the assay with SR leukemia was above 100 µM throughout.

For `CCOC(=O)c1cc(NS(=O)(=O)c2ccccc2)cc(C(=O)OCC)c1`, the GI50 with ACHN renal, in the assay with HL-60(TB) leukemia, in the assay on IGROV1 ovarian, with MDA-MB-435, in the assay with NCI-H23 lung and in the assay on PC-3 prostate was above 100 µM in each case. The GI50 in the assay on RPMI-8226 leukemia, in the assay on SK-MEL-2 melanoma, in the assay with SN12C renal and in the assay with SR leukemia was above 100 µM each time. Besides, the TGI in the assay on ACHN renal, in the assay on HL-60(TB) leukemia, in the assay with IGROV1 ovarian, in the assay with MDA-MB-435, in the assay on NCI-H23 lung and in the assay on PC-3 prostate was above 100 µM throughout. Further, the TGI in the assay with RPMI-8226 leukemia, in the assay on SK-MEL-2 melanoma, in the assay on SN12C renal and in the assay on SR leukemia was above 100 µM in each case.

Turning to `O=C(O)/C=C\C(=O)N1C/C(=C\c2ccccc2Cl)C(=O)/C(=C/c2ccccc2Cl)C1`, the GI50 is 3.37 µM in the assay on HL-60(TB) leukemia; 3.66 µM in the assay with IGROV1 ovarian; 3.34 µM with MDA-MB-435; 2.5 µM in the assay on NCI-H23 lung; 3.56 µM in the assay with PC-3 prostate; 1.35 µM with RPMI-8226 leukemia. In addition, the GI50 is 3.08 µM in the assay on SK-MEL-2 melanoma, 2.93 µM with SN12C renal and 0.632 µM with SR leukemia. For the same molecule, the TGI is 11.8 µM with HL-60(TB) leukemia; 11.2 µM in the assay on IGROV1 ovarian; 13.6 µM with MDA-MB-435; 6.41 µM in the assay on NCI-H23 lung; 15.5 µM in the assay with PC-3 prostate; 10.3 µM in the assay with RPMI-8226 leukemia. Moreover, the TGI in the assay on SK-MEL-2 melanoma was 8.33 µM; in the assay on SN12C renal it was 9.31 µM; in the assay with SR leukemia it was 13 µM.

In the case of `O=C(NCCCCCCNC(=O)n1cc(F)c(=O)[nH]c1=O)NCCCOCCOCCOCCOCCOCCOCCOCCOCCOCCOCCOCCOCCOCCOCCOCCOCCOCCOCCOCCOCCOCCCNC(=O)C(O)C(O)C(O)C(O)CO` (stereo unspecified), the TGI in the assay with ACHN renal, in the assay on HL-60(TB) leukemia, in the assay on IGROV1 ovarian, in the assay with MDA-MB-435, in the assay with NCI-H23 lung and in the assay with PC-3 prostate was above 100 µM each time. For the same molecule, the TGI in the assay with RPMI-8226 leukemia, in the assay on SK-MEL-2 melanoma, in the assay with SN12C renal and in the assay with SR leukemia was above 100 µM each time.

`COc1ccc2sc3c(NCCCN(C)C)nc4ccccc4c3c(=O)c2c1`: the GI50 with ACHN renal is 1.56 µM; in the assay on HL-60(TB) leukemia it was 1.88 µM; with IGROV1 ovarian it was 1.67 µM; with MDA-MB-435, 1.59 µM; with NCI-H23 lung it was 1.59 µM; in the assay with PC-3 prostate, 1.62 µM. Moreover, the GI50 with RPMI-8226 leukemia was 1.68 µM; in the assay on SK-MEL-2 melanoma it was 1.76 µM; in the assay with SN12C renal it was 1.71 µM; in the assay with SR leukemia, 1.68 µM. Also, the TGI in the assay on ACHN renal came out at 2.9 µM; with HL-60(TB) leukemia, 3.91 µM; in the assay on IGROV1 ovarian, 3.23 µM; in the assay with MDA-MB-435 it was 2.98 µM; in the assay with NCI-H23 lung, 3.06 µM; in the assay on PC-3 prostate, 3.22 µM. Moreover, the TGI with RPMI-8226 leukemia was found to be 3.66 µM; in the assay with SK-MEL-2 melanoma, 3.32 µM; with SN12C renal, 3.2 µM; in the assay with SR leukemia, 5.99 µM.

On to `O=C(NCCO)Nc1ccc(-c2nc(N3CCOCC3)c3cccn3n2)cc1`, for which the GI50 with ACHN renal was 0.0614 µM; with HL-60(TB) leukemia it was 2.21 µM; in the assay on IGROV1 ovarian, 0.167 µM; in the assay on MDA-MB-435, 0.188 µM; in the assay with NCI-H23 lung it was 0.239 µM; with PC-3 prostate, 0.103 µM. For the same molecule, the GI50 is 0.405 µM in the assay with RPMI-8226 leukemia, 0.256 µM with SK-MEL-2 melanoma, 0.567 µM in the assay on SN12C renal and 0.232 µM in the assay on SR leukemia. For the same molecule, the TGI in the assay on ACHN renal is above 100 µM; with HL-60(TB) leukemia, above 100 µM; in the assay with IGROV1 ovarian it was 1.08 µM; with MDA-MB-435, above 28.1 µM; with NCI-H23 lung it was above 100 µM; with PC-3 prostate, above 100 µM. The TGI in the assay on RPMI-8226 leukemia was above 54.6 µM; in the assay with SK-MEL-2 melanoma, 5.09 µM; with SN12C renal, above 100 µM; in the assay on SR leukemia, above 100 µM.

Take `O=C(/C=C/c1ccccc1)c1cc(Br)ccc1O`: the TGI came out at 28.7 µM in the assay on ACHN renal; 25.7 µM in the assay with HL-60(TB) leukemia; 25 µM with IGROV1 ovarian; 32.6 µM with MDA-MB-435; 31.4 µM in the assay with NCI-H23 lung; 33.7 µM in the assay on PC-3 prostate. Besides, the TGI came to 34 µM in the assay with RPMI-8226 leukemia, 40.6 µM with SK-MEL-2 melanoma, 29.7 µM in the assay with SN12C renal and 12.3 µM with SR leukemia.
